From PubChem BioAssay (NCI)
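Exposure lasted 48 hours, with cells grown in 96-well plates and compounds tested at five concentrations. TGI: concentration producing complete growth inhibition.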

Legend:
Assay in all cases: DTP human tumour cell line panel, 48 h
SNB-19 CNS = test system: SNB-19 CNS
LXFL 529 NSCLC = test system: LXFL 529 NSCLC
OVCAR-8 ovarian = test system: OVCAR-8 ovarian
SR leukemia = test system: SR leukemia
NCI-H522 lung = test system: NCI-H522 lung
SW-620 colon = test system: SW-620 colon
UACC-257 melanoma = test system: UACC-257 melanoma
NCI-H460 lung = test system: NCI-H460 lung
OVCAR-5 ovarian = test system: OVCAR-5 ovarian
A498 renal = test system: A498 renal
A549 NSCLC = test system: A549 NSCLC
CAKI-1 renal = test system: CAKI-1 renal
MOLT-4 leukemia = test system: MOLT-4 leukemia
EKVX NSCLC = test system: EKVX NSCLC
SK-MEL-5 melanoma = test system: SK-MEL-5 melanoma
HT29 colon = test system: HT29 colon
SK-MEL-2 melanoma = test system: SK-MEL-2 melanoma
SK-MEL-28 melanoma = test system: SK-MEL-28 melanoma
OVCAR-4 ovarian = test system: OVCAR-4 ovarian
NCI-H23 lung = test system: NCI-H23 lung
HOP-62 NSCLC = test system: HOP-62 NSCLC
HCT-15 colon = test system: HCT-15 colon
UACC-62 melanoma = test system: UACC-62 melanoma
HCT-116 colon = test system: HCT-116 colon
IGROV1 ovarian = test system: IGROV1 ovarian
U251 CNS = test system: U251 CNS
SF-268 CNS = test system: SF-268 CNS
NCI-H226 lung = test system: NCI-H226 lung
MALME-3M melanoma = test system: MALME-3M melanoma
DLD-1 colon = test system: DLD-1 colon
HCC-2998 colon = test system: HCC-2998 colon
786-0 renal = test system: 786-0 renal
LOX IMVI melanoma = test system: LOX IMVI melanoma
RPMI-8226 leukemia = test system: RPMI-8226 leukemia
SK-OV-3 ovarian = test system: SK-OV-3 ovarian
SN12C renal = test system: SN12C renal
UO-31 renal = test system: UO-31 renal
KM12 colon = test system: KM12 colon
OVCAR-3 ovarian = test system: OVCAR-3 ovarian
M19-MEL melanoma = test system: M19-MEL melanoma
HOP-92 NSCLC = test system: HOP-92 NSCLC
COLO 205 colon = test system: COLO 205 colon
SF-539 CNS = test system: SF-539 CNS
SNB-78 CNS = test system: SNB-78 CNS
K-562 leukemia = test system: K-562 leukemia
CCRF-CEM leukemia = test system: CCRF-CEM leukemia
SF-295 CNS = test system: SF-295 CNS
RXF 393 renal = test system: RXF 393 renal
DMS 114 small cell lung = test system: DMS 114 small cell lung
ACHN renal = test system: ACHN renal
HL-60(TB) leukemia = test system: HL-60(TB) leukemia
MDA-MB-231 breast = test system: MDA-MB-231 breast
PC-3 prostate = test system: PC-3 prostate
DU-145 prostate = test system: DU-145 prostate
HS 578T breast = test system: HS 578T breast
T-47D breast = test system: T-47D breast
MDA-N = test system: MDA-N
SNB-75 CNS = test system: SNB-75 CNS
M14 melanoma = test system: M14 melanoma
MCF7 breast = test system: MCF7 breast
TK-10 renal = test system: TK-10 renal
MDA-MB-435 = test system: MDA-MB-435
NCI/ADR-RES ovarian = test system: NCI/ADR-RES ovarian
BT-549 breast = test system: BT-549 breast

`N#Cc1cc([N+](=O)[O-])ccc1NC(=O)/C(=N/N)C(C(=O)c1ccc(Cl)c(Cl)c1)C1OC(=O)c2ccccc21` (stereo not drawn) was tested, and the TGI (SNB-19 CNS) was greater than 100 µM, the TGI (LXFL 529 NSCLC) was greater than 100 µM and the TGI (OVCAR-8 ovarian) was greater than 100 µM. It also gave a TGI (SR leukemia) greater than 100 µM, a TGI (NCI-H522 lung) greater than 100 µM and a TGI (SW-620 colon) greater than 100 µM. It also gave a TGI (UACC-257 melanoma) greater than 100 µM, a TGI (NCI-H460 lung) greater than 100 µM and a TGI (OVCAR-5 ovarian) greater than 100 µM. The TGI (A498 renal) was greater than 100 µM, the TGI (A549 NSCLC) was greater than 100 µM and the TGI (CAKI-1 renal) was greater than 100 µM. It also gave a TGI (MOLT-4 leukemia) greater than 100 µM, a TGI (EKVX NSCLC) greater than 100 µM and a TGI (SK-MEL-5 melanoma) greater than 100 µM. For the same compound, the TGI (HT29 colon) was greater than 100 µM, the TGI (SK-MEL-2 melanoma) was greater than 100 µM and the TGI (SK-MEL-28 melanoma) was greater than 100 µM. For the same compound, the TGI (OVCAR-4 ovarian) was greater than 100 µM, the TGI (NCI-H23 lung) was greater than 100 µM and the TGI (HOP-62 NSCLC) was greater than 100 µM. It also gave a TGI (HCT-15 colon) greater than 100 µM, a TGI (UACC-62 melanoma) greater than 100 µM and a TGI (HCT-116 colon) greater than 100 µM. It also gave a TGI (IGROV1 ovarian) greater than 100 µM, a TGI (U251 CNS) greater than 100 µM and a TGI (SF-268 CNS) greater than 100 µM. For the same compound, the TGI (NCI-H226 lung) was greater than 100 µM, the TGI (MALME-3M melanoma) was greater than 100 µM and the TGI (DLD-1 colon) was greater than 100 µM. For the same compound, the TGI (HCC-2998 colon) was greater than 100 µM, the TGI (786-0 renal) was greater than 100 µM and the TGI (LOX IMVI melanoma) was greater than 100 µM. For the same compound, the TGI (RPMI-8226 leukemia) was greater than 100 µM, the TGI (SK-OV-3 ovarian) was greater than 100 µM and the TGI (SN12C renal) was greater than 100 µM. For the same compound, the TGI (UO-31 renal) was greater than 100 µM, the TGI (KM12 colon) was greater than 100 µM and the TGI (OVCAR-3 ovarian) was greater than 100 µM. It also gave a TGI (M19-MEL melanoma) greater than 100 µM, a TGI (HOP-92 NSCLC) of 60 µM and a TGI (COLO 205 colon) greater than 100 µM. It also gave a TGI (SF-539 CNS) greater than 100 µM, a TGI (SNB-78 CNS) greater than 100 µM and a TGI (K-562 leukemia) greater than 100 µM. The TGI (CCRF-CEM leukemia) was greater than 100 µM, the TGI (SF-295 CNS) was greater than 100 µM and the TGI (RXF 393 renal) was greater than 100 µM. For the same compound, the TGI (DMS 114 small cell lung) was greater than 100 µM and the TGI (ACHN renal) was greater than 100 µM.
`O=C1OCC/C1=C/c1ccc(N=Nc2c(O)ccc3ccccc23)cc1` showed a TGI (SNB-19 CNS) greater than 100 µM, a TGI (HL-60(TB) leukemia) of 57.1 µM and a TGI (OVCAR-8 ovarian) of 72 µM. For the same compound, the TGI (SR leukemia) was 37.5 µM, the TGI (NCI-H522 lung) was 41.8 µM and the TGI (MDA-MB-231 breast) was greater than 100 µM. For the same compound, the TGI (SW-620 colon) was 40 µM, the TGI (UACC-257 melanoma) was 40.3 µM and the TGI (NCI-H460 lung) was 47.3 µM. For the same compound, the TGI (PC-3 prostate) was 49.6 µM, the TGI (OVCAR-5 ovarian) was 42.2 µM and the TGI (A498 renal) was 34.2 µM. The TGI (A549 NSCLC) was 44.7 µM, the TGI (DU-145 prostate) was 36.6 µM and the TGI (CAKI-1 renal) was 34.8 µM. It also gave a TGI (HS 578T breast) of 54.3 µM, a TGI (MOLT-4 leukemia) of 51.1 µM and a TGI (EKVX NSCLC) of 41.8 µM. The TGI (T-47D breast) was greater than 100 µM, the TGI (SK-MEL-5 melanoma) was 50.8 µM and the TGI (HT29 colon) was 35 µM. The TGI (SK-MEL-2 melanoma) was 55.2 µM, the TGI (SK-MEL-28 melanoma) was 38.4 µM and the TGI (OVCAR-4 ovarian) was 37.4 µM. The TGI (MDA-N) was 33.5 µM, the TGI (NCI-H23 lung) was 44.8 µM and the TGI (HOP-62 NSCLC) was 45.8 µM. For the same compound, the TGI (HCT-15 colon) was 60.7 µM, the TGI (UACC-62 melanoma) was 56.5 µM and the TGI (HCT-116 colon) was 34.6 µM. For the same compound, the TGI (IGROV1 ovarian) was 54.7 µM, the TGI (U251 CNS) was 39.2 µM and the TGI (SF-268 CNS) was 44.7 µM. For the same compound, the TGI (NCI-H226 lung) was 36 µM, the TGI (MALME-3M melanoma) was 32.3 µM and the TGI (SNB-75 CNS) was 49.2 µM. For the same compound, the TGI (HCC-2998 colon) was 39.7 µM, the TGI (786-0 renal) was 36.6 µM and the TGI (M14 melanoma) was 66.3 µM. For the same compound, the TGI (RPMI-8226 leukemia) was 53.8 µM, the TGI (SK-OV-3 ovarian) was 55.3 µM and the TGI (SN12C renal) was 45.1 µM. For the same compound, the TGI (UO-31 renal) was 37.3 µM, the TGI (KM12 colon) was 22.3 µM and the TGI (OVCAR-3 ovarian) was 34.4 µM. It also gave a TGI (HOP-92 NSCLC) of 47.3 µM, a TGI (COLO 205 colon) of 58 µM and a TGI (MCF7 breast) greater than 100 µM. It also gave a TGI (SF-539 CNS) of 36.6 µM, a TGI (TK-10 renal) of 35.3 µM and a TGI (MDA-MB-435) of 56.5 µM. The TGI (NCI/ADR-RES ovarian) was 41.7 µM, the TGI (K-562 leukemia) was greater than 100 µM and the TGI (CCRF-CEM leukemia) was 53.5 µM. The TGI (SF-295 CNS) was 47.8 µM, the TGI (RXF 393 renal) was 36.8 µM and the TGI (BT-549 breast) was 49.9 µM. For the same compound, the TGI (ACHN renal) was 31.8 µM.
